This experiment deals with BDF1 mice, P388 leukemia ip, median survival T/C. Nature of the experiment: NCI In Vivo Anticancer Drug Screen. Data for tumor model P388 Leukemia (intraperitoneal) in B6D2F1 (BDF1) mice. Conditions: endpoint: median survival time, higher = longer survival. An outline of the steps:
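Steps: implant the tumour, treat one group with compound and another with vehicle, record survival, then divide treated by control.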

Where [1] appears, read: dose: 100.0 mg/kg/injection, schedule: Q04DX003 (ip), vehicle: Klucel (hydroxypropylcellulose) (HPC).
Setting [2] is: dose: 200.0 mg/kg/injection, schedule: Q04DX003 (ip), vehicle: Klucel (hydroxypropylcellulose) (HPC).
Setting [3] is: dose: 400.0 mg/kg/injection, schedule: Q04DX003 (ip), vehicle: Klucel (hydroxypropylcellulose) (HPC).
[4] abbreviates: dose: 50.0 mg/kg/injection, schedule: Q01DX009 (ip), vehicle: saline with Tween-80.
[5] abbreviates: dose: 100.0 mg/kg/injection, schedule: Q01DX009 (ip), vehicle: saline with Tween-80.
The mark [6] stands for this setting: dose: 200.0 mg/kg/injection, schedule: Q01DX009 (ip), vehicle: saline with Tween-80.
[7] abbreviates: dose: 25.0 mg/kg/injection, schedule: Q01DX009 (ip), vehicle: saline with Tween-80.
Setting [8] is: dose: 400.0 mg/kg/injection, schedule: Q01DX009 (ip), vehicle: saline with Tween-80.
Setting [9] is: dose: 100.0 mg/kg/injection, schedule: Q01DX009 (ip), vehicle: saline.

SMILES strings stand for the structures. Inconclusive results and toxic doses are left out.

As for `CCOC(=O)C1OC(n2cnc3c(N)ncnc32)C(O)C1O` (stereo unspecified), the T/C was 103 % of control (dose: 6.25 mg/kg/injection, schedule: Q01DX009 (ip), vehicle: saline); 94 % of control (dose: 12.5 mg/kg/injection, schedule: Q01DX009 (ip), vehicle: saline); 94 % of control (dose: 25.0 mg/kg/injection, schedule: Q01DX009 (ip), vehicle: saline); 92 % of control (dose: 50.0 mg/kg/injection, schedule: Q01DX009 (ip), vehicle: saline).
For the compound `O=[N+]([O-])c1ccc(SNc2ccc(O)cc2)cc1[N+](=O)[O-]`, the T/C is 100 % of control (dose: 100.0 mg/kg/injection, schedule: Q01DX009 (ip), vehicle: Klucel (hydroxypropylcellulose) (HPC)); 100 % of control under setting [1]; 90 % of control (dose: 200.0 mg/kg/injection, schedule: Q01DX009 (ip), vehicle: Klucel (hydroxypropylcellulose) (HPC)); 104 % of control under setting [2]; 109 % of control (dose: 400.0 mg/kg/injection, schedule: Q01DX009 (ip), vehicle: Klucel (hydroxypropylcellulose) (HPC)); 104 % of control under setting [3].
`O=C(NC(=O)OCCCCCl)Nc1cccc(Cl)c1`: the T/C by setting is: under setting [4], 100 % of control; under setting [5], 98 % of control; under setting [6], 88 % of control.
On to `CCC(C)(C)c1ccc(Oc2ccccc2)c(N)c1`, for which the T/C is 109 % of control (dose: 100.0 mg/kg/injection, schedule: Q04DX003 (ip), vehicle: other) and 113 % of control (dose: 200.0 mg/kg/injection, schedule: Q04DX003 (ip), vehicle: other).
With `Cc1ccccc1NC(=O)Nc1ccccc1C`, the T/C (dose: 0.37 mg/kg/injection, schedule: Q01DX009 (ip), vehicle: Klucel (hydroxypropylcellulose) (HPC)) is 88 % of control; the T/C (dose: 0.75 mg/kg/injection, schedule: Q01DX009 (ip), vehicle: Klucel (hydroxypropylcellulose) (HPC)) was 100 % of control; the T/C (dose: 1.5 mg/kg/injection, schedule: Q01DX009 (ip), vehicle: Klucel (hydroxypropylcellulose) (HPC)) is 107 % of control; the T/C under setting [1] was 104 % of control; the T/C under setting [2] is 95 % of control; the T/C under setting [3] was 109 % of control.
`CN(C)c1ccc(/C=C/c2ccncc2)cc1`: for the setting “dose: 3.13 mg/kg/injection, schedule: Q01DX009 (ip), vehicle: saline with Tween-80”, the T/C was 115 % of control.
For the compound `O=[N+]([O-])c1cc2c(c([N+](=O)[O-])c1)OCOC2`, the T/C runs as follows: under setting [7], 95 % of control; under setting [4], 95 % of control; under setting [5], 86 % of control; (dose: 100.0 mg/kg/injection, schedule: Q04DX003 (ip), vehicle: saline with Tween-80) 100 % of control; (dose: 200.0 mg/kg/injection, schedule: Q04DX003 (ip), vehicle: saline with Tween-80) 95 % of control.
On to `Nc1ccc(S(=O)(=O)N/N=C/c2ccccc2[N+](=O)[O-])cc1`, for which the T/C runs as follows: (dose: 6.25 mg/kg/injection, schedule: Q01DX009 (ip), vehicle: saline with Tween-80) 95 % of control; (dose: 12.5 mg/kg/injection, schedule: Q01DX009 (ip), vehicle: saline with Tween-80) 100 % of control; under setting [7], 101 % of control.
Turning to `CCSC(=O)N1c2ccc(OC)cc2C=CC1C#N` (stereo unspecified), the T/C runs as follows: under setting [5], 164 % of control; under setting [6], 180 % of control; under setting [8], 190 % of control; (dose: 600.0 mg/kg/injection, schedule: Q04DX003 (ip), vehicle: saline with Tween-80) 150 % of control.
For the compound `NC(=O)N/N=C1\CCCC(CCC(=O)O)C1` (stereo unspecified), the T/C is, setting by setting: (dose: 100.0 mg/kg/injection, schedule: Q01DX001 (ip), vehicle: Klucel (hydroxypropylcellulose) (HPC)) 96 % of control; (dose: 200.0 mg/kg/injection, schedule: Q01DX001 (ip), vehicle: Klucel (hydroxypropylcellulose) (HPC)) 100 % of control; (dose: 400.0 mg/kg/injection, schedule: Q01DX001 (ip), vehicle: Klucel (hydroxypropylcellulose) (HPC)) 100 % of control.
Regarding `COC(=O)C1CCCCC1C(=O)OC` (stereo unspecified), the T/C is 90 % of control under setting [9]; 95 % of control (dose: 200.0 mg/kg/injection, schedule: Q01DX009 (ip), vehicle: saline); 109 % of control (dose: 264.0 mg/kg/injection, schedule: Q01DX009 (ip), vehicle: saline with Tween-80); 109 % of control under setting [8].
As for `CC(C)OC(CCCl)c1ccccc1` (stereo unspecified), the T/C is 95 % of control (dose: 75.0 mg/kg/injection, schedule: Q01DX009 (ip), vehicle: Klucel (hydroxypropylcellulose) (HPC)); 100 % of control under setting [1]; 109 % of control (dose: 150.0 mg/kg/injection, schedule: Q01DX009 (ip), vehicle: Klucel (hydroxypropylcellulose) (HPC)); 96 % of control under setting [2]; 109 % of control (dose: 300.0 mg/kg/injection, schedule: Q01DX009 (ip), vehicle: Klucel (hydroxypropylcellulose) (HPC)); 100 % of control under setting [3].
Consider `CN1CCN(Cc2nc3cccc4c3c([n+]2[O-])-c2ccccc2-4)CC1`, for which the T/C by setting is: (dose: 40.0 mg/kg/injection, schedule: Q06HX032 (ip), vehicle: saline with Tween-80) 100 % of control; (dose: 50.0 mg/kg/injection, schedule: Q03HX008 (ip), vehicle: saline with Tween-80) 107 % of control; (dose: 50.0 mg/kg/injection, schedule: Q03HX024 (ip), vehicle: saline with Tween-80) 109 % of control; (dose: 80.0 mg/kg/injection, schedule: Q01DX009 (ip), vehicle: saline with Tween-80) 118 % of control; (dose: 80.0 mg/kg/injection, schedule: Q03HX008 (ip), vehicle: saline with Tween-80) 120 % of control; under setting [9], 158 % of control. The T/C is 107 % of control (dose: 100.0 mg/kg/injection, schedule: Q01DX009 (oral), vehicle: saline with Tween-80); 159 % of control (dose: 100.0 mg/kg/injection, schedule: Q01DX Z (ip), vehicle: saline); 105 % of control (dose: 100.0 mg/kg/injection, schedule: Q03HX008 (oral), vehicle: saline with Tween-80); 162 % of control (dose: 100.0 mg/kg/injection, schedule: Q03HX024 (ip), vehicle: saline with Tween-80); 100 % of control (dose: 100.0 mg/kg/injection, schedule: Q08HX009 (oral), vehicle: saline with Tween-80); 120 % of control (dose: 100.0 mg/kg/injection, schedule: Q08HX027 (oral), vehicle: saline with Tween-80). For the same compound, the T/C is 150 % of control (dose: 150.0 mg/kg/injection, schedule: Q01DX009 (ip), vehicle: saline); 112 % of control (dose: 150.0 mg/kg/injection, schedule: Q01DX009 (oral), vehicle: saline with Tween-80); 99 % of control (dose: 150.0 mg/kg/injection, schedule: Q04DX003 (oral), vehicle: saline with Tween-80); 112 % of control (dose: 150.0 mg/kg/injection, schedule: Q08HX009 (oral), vehicle: saline with Tween-80); 161 % of control (dose: 175.0 mg/kg/injection, schedule: Q08HX027 (oral), vehicle: saline with Tween-80); 110 % of control (dose: 200.0 mg/kg/injection, schedule: Q01DX009 (oral), vehicle: saline with Tween-80). The T/C reads like this: (dose: 200.0 mg/kg/injection, schedule: Q03HX024 (oral), vehicle: saline with Tween-80) 152 % of control; (dose: 200.0 mg/kg/injection, schedule: Q04DX003 (oral), vehicle: saline with Tween-80) 110 % of control; (dose: 200.0 mg/kg/injection, schedule: Q08HX009 (oral), vehicle: saline with Tween-80) 103 % of control; (dose: 200.0 mg/kg/injection, schedule: Q08HX027 (oral), vehicle: saline with Tween-80) 90 % of control; (dose: 250.0 mg/kg/injection, schedule: Q01DX009 (oral), vehicle: saline with Tween-80) 117 % of control; (dose: 250.0 mg/kg/injection, schedule: Q04DX003 (oral), vehicle: saline with Tween-80) 100 % of control. For the same compound, the T/C (dose: 250.0 mg/kg/injection, schedule: Q08HX009 (oral), vehicle: saline with Tween-80) is 116 % of control and the T/C (dose: 300.0 mg/kg/injection, schedule: Q04DX003 (oral), vehicle: saline with Tween-80) was 105 % of control.
As to `CC(C)(C)N(O)N=O.CC(C)(C)N(O)N=O.[Cu]`, the T/C (dose: 1.56 mg/kg/injection, schedule: Q01DX001 (ip), vehicle: saline) was 107 % of control; the T/C (dose: 3.13 mg/kg/injection, schedule: Q01DX001 (ip), vehicle: saline) was 109 % of control; the T/C (dose: 6.25 mg/kg/injection, schedule: Q01DX001 (ip), vehicle: saline) is 106 % of control.
